# Test results: US20120027687A1, “FATTY ACID PROTEIN KINASE C ACTIVATORS AND ANTICOAGULANT FOR THE TREATMENT OF STROKE” (priority 2010, published 2012)
# How the values were obtained:
# Aβ = Aβ production in N2a neuroblastoma cells transfected with human APPSwe/PSID; type: cell-based, mouse; conditions: 24 hours
# Description: Cell culture. Rat hippocampal H19-7/IGF-IR cells (ATCC, Manassas, Va.) were plated onto poly-L-lysine coated plates and grown at 35° C. in DMEM/10% FCS for several days until about 50% coverage was obtained. The cells were then induced to differentiate into a neuronal phenotype by replacing the medium with 5 ml N2 medium containing 10 ng/ml basic fibroblast growth factor at 39° C. and grown in T-75 flasks at 37° C. Human SH-SY5Y neuroblastoma cells (ATCC) were cultured in 45% F12K/45% MEM/10% FCS. Mouse N2A neuroblastoma cells were cultured in DMEM/10% FCS without glutamine. Rat hippocampal neurons from 18-day-old embryonic Sprague Dawley rat brains were plated on 12- or 96-well plates coated with poly-D-lysine (Sigma-Aldrich, St. Louis, Mo.) in B-27 neurobasal medium containing 0.5 mM glutamine and 25 μM glutamate (Invitrogen, Carlsbad, Calif.) and cultured for three days in the medium without glutamate. The neuronal cells were grown under 5% CO2 in an incubator maintained at 37° C. for 14 days.
# Aβ Measurement and Cell Viability Assay. Aβ was measured using an Aβ 1-42 human fluorimetric ELISA kit (Invitrogen) according to the manufacturer's instructions. Results were measured in a Biotek Synergy HT microplate reader. AlamarBlue and CyQuant NF (Invitrogen) according to the manufacturer's instructions.
# To measure the effects of PKCε activation on Aβ production, mouse neuro2a (N2a) neuroblastoma cells transfected with human APPSwe/PSID were used, which produce large quantities of Aβ. Petanceska et al., J. Neurochem. (1996), vol. 74, pp. 1878-1884. […] With bryostatin, which activates PKC by binding to the diacylglycerol-binding site, the inhibition was biphasic with concentrations of 20 nM or higher producing no net effect. This may be explained by the ability of this class of PKC activators to downregulate PKC when used at high concentrations.
# TACE = TACE activity in neuronal cells; type: cell-based, human, mouse; conditions: SH-SY5Y cells, N2a cells, primary neurons from rat hippocampus
# Description: TACE Assay. TACE was measured by incubating 5 μl cell homogenate, 3 μl buffer (50 mM Tris-HCl 7.4 plus 25 mM NaCl plus 4% glycerol), and 1 μl of 100 μM TACE substrate (Aβz-[…]-DPa) (Calbiochem) for 20 min at 37° C. 1.5-ml polypropylene centrifuge tubes. Jin et al., Anal. Biochem. (2002), vol. 302, pp. 269-275. The reaction was stopped by cooling to 4° C. The samples were diluted to 1 ml and the fluorescence was rapidly measured (ex=320 nm, em=420 nm) in a Spex Fluorolog 2 spectrofluorometer.
# PKCδ = molecular target: T1, PKCδ (Homo sapiens, UniProt Q05655); assay: PKC assay with purified PKCδ; type: biochemical; conditions: about 1-100 μM, data not shown
# T1 construct: purchased Calbiochem
# Description: Protein kinase C assay. Rat hippocampal cells were cultured and scraped in 0.2 ml homogenization buffer (20 mM Tris-HCl, pH 7.4, 50 mM NaF, 1 μg/ml leupeptin, and 0.1 mM PMSF) and homogenized by sonication a Marsonix microprobe sonicator (5 sec, 10W). To measure PKC, 10 μl of cell homogenate or purified PKC isozyme (purchased from Calbiochem) was incubated for 15 min at 37° C. in the presence of 10 μM histones, 4.89 mM CaCl2, 1.2 μg/μl phosphatidyl-L-serine, 0.18 μg/μl 1,2-dioctanoyl-sn-glycerol, 10 mM MgCl2, 20 mM HEPES (pH 7.4), 0.8 mM EDTA, 4 mM EGTA, 4% glycerol, 8 μg/ml aprotinin, 8 μg/ml leupeptin, and 2 mM benzamidine. 0.5 Ci [^γ32P]ATP was added and ^32P-phosphoprotein formation was measured by adsorption onto phosphocellulose as described previously. Nelson and Alkon, J. Neurochemistry (1995), vol. 65, pp. 2350-2357. For measurements of activation by BR-101 (DCP-LA) and similar compounds. PKC activity was measured in the absence of diacylglycerol and phosphatidylserine and PKC δ, ε, η, and μ were measured in the absence of added EGTA and CaCl2, as described by Kanno et al. (J. Lipid Res. 2006, vol. 47, pp. 1146-1150). […]
# (§1) To determine their PKC isozyme specificity, fatty acid derivatives were preincubated with purified PKC for five minutes and the PKC activity was measured radiometrically.
# PKCα = molecular target: T2, PKCα (Homo sapiens, UniProt P17252); assay: PKC assay with PKCα; type: biochemical; conditions: data not shown
# T2 construct: purchased Calbiochem
# Description: PKC assay. Recombinant PKC (1 ng of PKCα or PKCε isoform) was mixed with BR-101 (DCP-LA) in the presence of 10 micromolar histones, 5 mM CaCl2, 1.2 μg/μl phosphatidyl-L-serine, 0.18 μg/μl 1,2-dioctanoyl-sn-glycerol (DAG), 10 mM MgCl2, 20 mM HEPES (pH 7.4), 0.8 mM EDTA, 4 mM EGTA, 4% glycerol, 8 μg/ml aprotinin, 8 μg/ml leupeptin, and 2 mM benzamidine. 0.5 micro Ci[^γ32P]ATP was added. The incubation mixture was incubated for 15 min at 37 degrees in a total volume of 10 microliters. The reaction was stopped by spotting the reaction mixtures on 1×2 cm strips of cellulose phosphate paper (Whatman P81) and immediately washing twice for 1 hr in 0.5% H3PO4. The cellulose phosphate strips were counted in a scintillation counter. In some experiments, phosphatidylserine, diacylglycerol, and/or calcium were removed.
# Protein kinase C assay. […] 0.5 Ci [^γ32P]ATP was added and ^32P-phosphoprotein formation was measured by adsorption onto phosphocellulose as described previously. […] PKC activity was measured in the absence of diacylglycerol and phosphatidylserine and PKC δ, ε, η, and μ were measured in the absence of added EGTA and CaCl2, as described by Kanno et al. (J. Lipid Res. 2006, vol. 47, pp. 1146-1150). […]
# as §1
# T1 sequence (Q05655 whole entry): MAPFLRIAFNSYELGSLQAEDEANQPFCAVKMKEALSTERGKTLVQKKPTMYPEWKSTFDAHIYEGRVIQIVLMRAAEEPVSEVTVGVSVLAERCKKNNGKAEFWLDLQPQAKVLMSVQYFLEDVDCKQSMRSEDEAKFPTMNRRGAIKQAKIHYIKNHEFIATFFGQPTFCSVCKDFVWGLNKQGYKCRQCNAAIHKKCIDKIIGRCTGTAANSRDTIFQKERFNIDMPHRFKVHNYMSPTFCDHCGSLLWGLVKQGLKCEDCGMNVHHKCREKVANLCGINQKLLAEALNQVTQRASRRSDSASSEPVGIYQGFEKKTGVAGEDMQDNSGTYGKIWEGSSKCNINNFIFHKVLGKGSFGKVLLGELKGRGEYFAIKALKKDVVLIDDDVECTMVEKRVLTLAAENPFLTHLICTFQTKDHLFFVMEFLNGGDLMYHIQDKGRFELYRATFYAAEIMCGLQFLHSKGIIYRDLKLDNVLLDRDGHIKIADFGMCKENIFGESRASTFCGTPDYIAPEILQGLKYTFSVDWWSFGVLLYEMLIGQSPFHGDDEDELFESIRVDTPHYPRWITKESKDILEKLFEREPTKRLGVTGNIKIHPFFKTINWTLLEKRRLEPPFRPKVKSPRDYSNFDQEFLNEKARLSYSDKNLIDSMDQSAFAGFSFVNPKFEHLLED
smiles,measurement,setting,value
"CCCCCC1CC1CC1CC1CCCCCCCC(=O)O (stereo not shown) [BR-101, 2-[(2-pentylcyclopropyl)methyl]cyclopropaneoctanoic acid]",levels of intracellular Aβ,Aβ; various concentrations,markedly reduced
same,levels of secreted Aβ,Aβ; various concentrations,markedly reduced
same,concentration dependence of Aβ inhibition,Aβ; fatty acid derivatives up to 10 μM to 100 μM,monotonically increasing inhibition
same,TACE activity,TACE,small increases
same,effect on PKCδ at higher concentrations,PKCδ,partially inhibited
same,effect on PKCα at higher concentrations,PKCα; 50-100 μM,activated
same,effect on PKCα,PKCα,not affected
